Source: ChEMBL document CHEMBL5034044, “Novel Compounds for Targeted Degradation of BRD9 and Their Use for Treating Cancer” (ACS Med Chem Lett, 2022)

biological target: T1, Bromodomain-containing protein 9 (Homo sapiens, UniProt Q9H8M2); test: Induction of degradation of BRD9 (unknown origin) assessed as protein degradation measured after 2 hrs by HiBit Lytic assay
T1 sequence (Q9H8M2 whole entry): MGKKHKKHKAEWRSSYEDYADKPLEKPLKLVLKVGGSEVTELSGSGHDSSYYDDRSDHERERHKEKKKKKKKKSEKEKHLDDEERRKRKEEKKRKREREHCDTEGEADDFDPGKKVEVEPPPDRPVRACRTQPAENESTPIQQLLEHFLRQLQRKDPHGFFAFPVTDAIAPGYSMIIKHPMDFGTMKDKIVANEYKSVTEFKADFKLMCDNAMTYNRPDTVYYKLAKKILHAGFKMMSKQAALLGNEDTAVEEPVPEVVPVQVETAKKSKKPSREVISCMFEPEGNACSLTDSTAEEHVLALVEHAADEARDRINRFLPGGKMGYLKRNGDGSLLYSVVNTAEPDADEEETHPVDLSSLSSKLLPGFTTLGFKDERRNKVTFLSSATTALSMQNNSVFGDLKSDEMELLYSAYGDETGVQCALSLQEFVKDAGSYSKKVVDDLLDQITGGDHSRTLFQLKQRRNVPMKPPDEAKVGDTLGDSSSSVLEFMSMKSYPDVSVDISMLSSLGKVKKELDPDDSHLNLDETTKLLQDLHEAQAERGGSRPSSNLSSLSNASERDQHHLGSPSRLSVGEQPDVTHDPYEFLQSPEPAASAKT

**Q.** With `COc1cc(-c2cn(C)c(=O)c(C)c2C)cc(Cl)c1CN1CCC(N2CCN(c3ccc(NC4CCC(=O)NC4=O)cc3F)CC2)C(F)(F)C1` (stereo unspecified) as the compound, how does the DC50 read?
**A.** The DC50 was less than 0.1 µM.

**Q.** For `COc1cc(-c2cn(C)c(=O)c(C)c2C)cc(OC)c1CN1CCN(C(=O)CC2CCN(c3ccc(NC4CCC(=O)NC4=O)cc3C(F)(F)F)CC2)CC12CC2` (stereo unspecified), which DC50 is on record?
**A.** Its DC50 is less than 0.1 µM.

**Q.** For `COc1cc(-c2cn(C)c(=O)c3[nH]ncc23)cc(OC)c1CN1CCC2(CC1)CN(C(=O)CN1CCC(c3ccc(NC4CCC(=O)NC4=O)cc3)CC1)C2` (stereo unspecified), which DC50 is on record?
**A.** The DC50 was less than 0.1 µM.

**Q.** `CC(c1ccc(-c2cn(C)c(=O)c3cc(F)ccc23)cc1OC(F)(F)F)N1CCC(C2CCN(c3ccc(NC4CCC(=O)NC4=O)cc3F)CC2)CC1` (stereo unspecified) was tested. Which DC50 did it give?
**A.** Its DC50 is less than 0.1 µM.

**Q.** For `COc1cc(-c2cn(C)c(=O)c3[nH]ncc23)cc(OC)c1CN1CCc2c(CN3CCC(c4ccc(NC5CCC(=O)NC5=O)cc4)C(F)(F)C3)csc2C1` (stereo unspecified), which DC50 is on record?
**A.** Its DC50 is less than 0.1 µM.

**Q.** `COc1cc(-c2cn(C)c(=O)c3cnccc23)c(Cl)cc1CN1CCC(N2CCN(c3ccc(NC4CCC(=O)NC4=O)cc3F)CC2)C(F)(F)C1` (stereo unspecified) was tested. Which DC50 did it give?
**A.** The DC50 was less than 0.1 µM.
